{
  "source": "patent US11198850B2",
  "about": "“Method for manufacturing telencephalon or progenitor tissue thereof” (RIKEN, priority 2013, dated 2021)",
  "key": {"[1]": {"tested_on": "Human ES cells (KhES-1) aggregates", "test": "Induction of basal ganglia progenitor tissue (LGE/MGE) in human ES cell aggregates by Shh signal agonist, immunohistostaining on day 35", "assay_type": "cell-based", "description": "Human ES cells (KhES-1; a fluorescence protein gene Venus is knocked-in a telencephalon specific gene Foxg1) were dispersed to single cells by a trypsin treatment, and according to the SFEBq method (Nakano et al, Cell Stem Cell, 2012), aggregates were formed and subjected to suspension aggregate culture at 37° C. in the presence of 5% CO2 for differentiation induction. The dispersed 9000 human ES cells were seeded in each well of a V bottom 96 well plate applied with a low cell adsorptive surface coating, and a growth factor-free G-MEM medium (Gibco/Invitrogen) added with 20% KSR (Knockout Serum Replacement), 0.1 mM non-essential amino acid solution (Gibco/Invitrogen), 1 mM sodium pyruvate solution (Sigma), and 0.1 mM 2-mercaptoethanol was used as the medium for differentiation induction. To suppress dispersion-induced cell death, 20 μM of a ROCK inhibitor Y-27632 was added for the first 3 days of differentiation induction, and the concentration thereof was reduced to half for the next 3 days. From day 0 to day 18 after the start of the differentiation induction, Wnt signal inhibitor IWR-1-end (3 μM) and TGFβ signal inhibitor SB431542 (5 μM) were added and allowed to react. On day 18 from the start of differentiation induction, these aggregates were transferred to a 9 cm petri dish applied with low cell-adhesive surface coating, and suspension culture was performed at 37° C., in the presence of 5% CO2, 40% O2. From day 18 to day 35, DMEM/F12 medium (Gibco/Invitrogen) added with 1% N2 supplement (Gibco/Invitrogen), and 1% lipid concentrate (Chemically defined lipid concentrate, Gibco/Invitrogen) was used. From day 35, the medium further added with 10% FBS, 5 μg/ml heparin, and 1% Matrigel growth factor reduced (BD Bioscience) was used. The aggregate was analyzed on day 1 and day 34 from the start of differentiation induction, and analyzed by immunohistostaining on day 42.\nUp to day 35 of differentiation induction, cells were cultured under culture conditions similar to those of Example 1. That is, human ES cell aggregates were cultured in a V bottom 96 well plate up to 18 days after differentiation induction, suspended aggregates were transferred to a non-cell adhesive petri dish (diameter […]), and suspension culture was performed at 37° C. in the presence of 5% CO2, 40% O2 from day 18 to day 35 of differentiation induction. However, Sonic hedgehog (Shh) signal agonist SAG was added to the culture medium of Example 1 at a final concentration of 30 nM or 500 nM only in the period of from day 15 to day 21 and allowed to react. The aggregate was analyzed by immunohistostaining on day 35.\nUp to day 35 of differentiation induction, cells were cultured under culture conditions similar to those of Example 2. That is, human ES cell aggregates were cultured in a V bottom 96 well plate up to 18 days after differentiation induction, suspended aggregates were transferred to a non-cell adhesive petri dish (diameter 9 cm), and suspension culture was performed at 37° C. in the presence of 5% CO2, 40% O2, from day 18 to day 35 of differentiation induction. However, Shh signal agonist SAG was added to the culture medium at a concentration of 30 nM only in the period of from day 15 to day 21 of differentiation induction. The aggregate was analyzed by immunohistostaining on day 35.\nVentralization of cortical neuroepithelium was performed by adding hedgehog agonist SAG (30 nM or 500 nM) during culture days 15-21. The cell aggregates were fixed on culture day 35."}, "[2]": {"tested_on": "hESC-derived cortical neuroepithelium", "test": "Rolling morphogenesis of hESC-derived cortical neuroepithelium with ROCK inhibitor", "assay_type": "cell-based, human", "settings": "P<0.001 vs control, Fisher's exact test, dihydrochloride", "source_text": "(A-I) Asymmetric progression of rounding morphogenesis of hESC-derived cortical neuroepithelium. Arrows indicate boundary of a cortical neuroepithelium domain in A and rolling epithelium in B-D. Arrowheads indicate rolling epithelium in E. Arrows indicate rounding movements of the neuroepithelium in F-I. (J-L) Effect of the ROCK inhibitor Y-27632 on the rolling of cortical neuroepithelium. […] Treatment group, n=187 neuroepithelium domains; control group, n=130. (M and N) The rolling shape was preferentially observed on the side with strong expression of Otx2 and Coup-TF1 (dorsal and caudal markers). (O-Q) Adjacent formation of neuroepithelium structures of cortex (Pax6+) and LGE (Gsh2+; with GAD65^+ GABAergic neurons underneath) on day 35. The cortical side contacting the LGE domain was opposite to the side with strong rolling (arrow). (R) Interkinetic nuclear migration in the hESC-derived cortical neuroepithelium on day 24 (two-photon imaging). Visualized with partial mixing of pax6::venus reporter hESCs with nonlabeled hESCs. Two daughter cells with both apical and basal processes were generated from an apically dividing progenitor. (Scale bars, 200 μm in A; 100 μm in B-H and J-N; 200 μm in O-Q.) Nuclear counter staining (blue), DAPI."}, "[3]": {"tested_on": "hESC-derived cortical neuroepithelium", "test": "Notch signal inhibition in hESC-derived cortical neuroepithelium, neural stem cell/progenitor and neuron markers", "assay_type": "cell-based, human", "settings": "10 μM DAPT, days 70-77", "source_text": "(A-C) Immunostaining of Pax6 and Sox2 in apical and basal (SVZ) neural stem cells/progenitors within the hESC-derived cortical neuroepithelium on day 91. The majority of Sox2 positive cells express Pax6 (C). (D-F) Effects of Notch signal inhibition on the expression of neural stem cells/progenitor and neuron markers in cortical neuroepithelium. […] An increase of cortical neuroepithelium thickness also observed after the treatment (F). ***P<0.001, Student t tests between with DAPT (n=6) and without DAPT (n=5) treatment. (G) Schematic of oRG neural stem cells/progenitors in the human fetal outer SVZ. (H and H′) Phospho-vimentin+ neural stem cells/progenitors in the SVZ expressed Sox2. (I) Phospho-vimentin+ neural stem cells/progenitors in the SVZ with a long […] process extending toward the pial surface. (J) Phospho-vimentin+ SVZ neural stem cells/progenitors with a basal process carried a pericentin+ centrosome in the neurons. During mitosis, two pericentin+ centrioles were found for dividing cells. […] (Scale bars, 100 μm in A-E; 25 μm in H-K.)\nCortical neuroepithelium induced from hESCs were subjected to culture under the following conditions. On day 18, the cell aggregates were transferred to a 9-cm Petri dish (non-cell adhesive surface coat) and further cultured in DMEM/F12 medium (Gibco/Invitrogen) supplemented with 1% N2 supplement (Gibco/Invitrogen), 1% lipid concentrate (Chemically Defined Lipid Concentrate, Gibco/Invitrogen), 0.25 mg/mL Fungizone, 100 U/mL penicillin, and 100 μg/mL streptomycin at 37° C. in the presence of 5% CO2 and 40% O2. From day 35, 10% FBS, 5 μg/mL heparin, and 1% Matrigel growth factor-reduced (BD Biosciences) were also added to the medium. To prevent cell death in the central portions of cell aggregates, the aggregates were cut into half-size with fine forceps under a dissecting microscope every 2 wk after day 35 and were cultured using a lumox culture dish (SARSTEDT; O2 penetrating) after day 56. From day 70, the concentration of Matrigel was increased (final 2%) and B27 supplement (Gibco/Invitrogen) was added to the medium."}, "[4]": {"tested_on": "Human ES cells (KhES-1) aggregates", "test": "Cortical hem formation in human ES cell aggregates with Wnt signal enhancer, immunohistostaining on day 42", "assay_type": "cell-based", "settings": "3 μM CHIR99021 alone, day 18 to day 42", "description": "Human ES cells (KhES-1; a fluorescence protein gene Venus is knocked-in a telencephalon specific gene Foxg1) were dispersed to single cells by a trypsin treatment, and according to the SFEBq method (Nakano et al, Cell Stem Cell, 2012), aggregates were formed and subjected to suspension aggregate culture at 37° C. in the presence of 5% CO2 for differentiation induction. The dispersed 9000 human ES cells were seeded in each well of a V bottom 96 well plate applied with a low cell adsorptive surface coating, and a growth factor-free G-MEM medium (Gibco/Invitrogen) added with 20% KSR (Knockout Serum Replacement), 0.1 mM non-essential amino acid solution (Gibco/Invitrogen), 1 mM sodium pyruvate solution (Sigma), and 0.1 mM 2-mercaptoethanol was used as the medium for differentiation induction. […] The aggregate was analyzed on day 1 and day 34 from the start of differentiation induction, and analyzed by immunohistostaining on day 42. […] The culture medium used for the culture from day 18 to day 42 was DMEM/F12 medium (Gibco/Invitrogen) added with 1% N2 supplement (Gibco/Invitrogen), 1% lipid concentrate (Chemically defined lipid concentrate, Gibco/Invitrogen), 10% FBS, 5 μg/ml heparin, 3 μM GSK-3β inhibitor CHIR99021 (Wnt signal enhancer) and the aggregates were analyzed by immunohistostaining on day 42."}, "[5]": {"settings": "30 nM SAG, day 15 to day 21, analysed day 35"}},
  "data": [
    {"smiles": "CNC1CCC(N(Cc2cccc(-c3ccncc3)c2)C(=O)c2sc3ccccc3c2Cl)CC1", "note": "(stereo not shown) [SAG]", "values": [
      {"measurement": "Gsh2 (LGE marker) expression in foxg1::Venus-expressing neural epithelium", "setting": "[1]; 30 nM SAG for days 15-21", "result": "a substantial portion of foxg1::Venus-expressing neural epithelium expressed Gsh2"},
      {"measurement": "aggregates with Gsh2 positive LGE neuroepithelium", "setting": "[1]; [5]", "result": "not less than 70%"},
      {"measurement": "aggregates with continuous self-formation of cerebral cortex and basal ganglion in one aggregate", "setting": "[1]; [5]", "result": "not less than 50%"},
      {"measurement": "percentage of Gsh2+ neuroepithelium in Foxg1+ telencephalic neuroepithelium", "setting": "[1]; 30 nM SAG, days 15-21", "result": "increased"},
      {"measurement": "percentage of Pax6+ neuroepithelium in Foxg1+ telencephalic neuroepithelium", "setting": "[1]; 30 nM SAG, days 15-21", "result": "partially suppressed"},
      {"measurement": "aggregates with Foxg1::venus positive and Nkx2.1 positive MGE neuroepithelium", "setting": "[1]; 500 nM SAG, day 15 to day 21, analysed day 35", "result": "not less than 80%"},
      {"measurement": "Nkx2.1+ neuroepithelium as share of Foxg1+ telencephalic NE", "setting": "[1]; 500 nM SAG, days 15-21", "result": "40-50%"},
      {"measurement": "expression of both Pax6 and Gsh2", "setting": "[1]; 500 nM SAG, days 15-21", "result": "efficiently suppressed"},
      {"measurement": "MGE marker Nkx2.1 expression", "setting": "[1]; high concentrations of SAG (500 nM), days 15-21", "result": "induced the MGE marker Nkx2.1 at the cost of Pax6 and Gsh2 expression"}
    ]},
    {"smiles": "C[C@@H](N)[C@H]1CC[C@H](C(=O)Nc2ccncc2)CC1.Cl.Cl", "note": "[Y-27632, (+)-(R)-trans-4-(1-aminoethyl)-N-(4-pyridyl)cyclohexanecarboxamide dihydrochloride]", "values": [
      {"measurement": "rolling morphogenesis of cortical neuroepithelium", "setting": "[2]", "result": "Attenuation of rolling morphogenesis"},
      {"measurement": "rolling morphogenesis of cortical neuroepithelium", "setting": "[2]; listed as ROCK inhibitor", "result": "attenuated"}
    ]},
    {"smiles": "C[C@H](NC(=O)Cc1cc(F)cc(F)c1)C(=O)N[C@H](C(=O)OC(C)(C)C)c1ccccc1", "note": "[DAPT]", "values": [
      {"measurement": "Satb2+ neurons", "setting": "[3]", "result": "increased"},
      {"measurement": "Sox2+ Tbr2− cells after the treatment", "setting": "[3]", "result": "rarely remained"},
      {"measurement": "Sox2− Tbr2+ intermediate neural stem cells/progenitors", "setting": "[3]", "result": "increased"},
      {"measurement": "cortical neuroepithelium thickness", "setting": "[3]; P<0.001", "result": "increase"}
    ]},
    {"smiles": "Cc1cnc(-c2cnc(NCCNc3ccc(C#N)cn3)nc2-c2ccc(Cl)cc2Cl)[nH]1", "note": "[CHIR99021, 6-[[2-[[4-(2,4-Dichlorophenyl)-5-(5-methyl-1H-imidazol-2-yl)-2-pyrimidinyl]amino]ethyl]amino]-3-pyridinecarbonitrile]", "values": [
      {"measurement": "aggregates with selective formation of cortical hem", "setting": "[4]", "result": "not less than 80%"}
    ]}
  ]
}
